“Also recorded” adds a separate entry of the source.

The values that follow come from paper PMC11887051, “Discovery of ONO-2920632 (VU6011887): A Highly Selective and CNS Penetrant TREK-2 (TWIK-Related K+ Channel 2) Preferring Activator In Vivo Tool Compound” (ACS Chemical Neuroscience, 2025).

One assay has as its target T1, TREK-1 (Homo sapiens, UniProt O95069).
T1 sequence (O95069 1-426): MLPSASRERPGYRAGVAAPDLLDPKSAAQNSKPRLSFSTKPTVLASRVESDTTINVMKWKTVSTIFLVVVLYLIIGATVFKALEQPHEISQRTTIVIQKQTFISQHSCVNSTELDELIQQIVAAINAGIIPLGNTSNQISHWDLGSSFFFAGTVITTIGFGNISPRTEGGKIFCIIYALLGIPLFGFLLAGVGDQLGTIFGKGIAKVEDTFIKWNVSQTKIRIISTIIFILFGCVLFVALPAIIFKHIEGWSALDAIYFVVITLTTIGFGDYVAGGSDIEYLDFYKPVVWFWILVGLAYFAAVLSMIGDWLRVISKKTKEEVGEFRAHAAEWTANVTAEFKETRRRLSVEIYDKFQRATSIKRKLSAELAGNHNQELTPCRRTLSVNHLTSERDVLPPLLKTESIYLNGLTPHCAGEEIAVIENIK
Kind of assay: manual patch clamp (MPC) assay, TREK-1, species not stated. It is filed as cell-based. For orientation: The patch-clamp technique gives a direct electrical read-out from membranes.

The target of another assay is T2, TREK-2 (Homo sapiens, UniProt P57789).
T2 sequence (P57789 1-538): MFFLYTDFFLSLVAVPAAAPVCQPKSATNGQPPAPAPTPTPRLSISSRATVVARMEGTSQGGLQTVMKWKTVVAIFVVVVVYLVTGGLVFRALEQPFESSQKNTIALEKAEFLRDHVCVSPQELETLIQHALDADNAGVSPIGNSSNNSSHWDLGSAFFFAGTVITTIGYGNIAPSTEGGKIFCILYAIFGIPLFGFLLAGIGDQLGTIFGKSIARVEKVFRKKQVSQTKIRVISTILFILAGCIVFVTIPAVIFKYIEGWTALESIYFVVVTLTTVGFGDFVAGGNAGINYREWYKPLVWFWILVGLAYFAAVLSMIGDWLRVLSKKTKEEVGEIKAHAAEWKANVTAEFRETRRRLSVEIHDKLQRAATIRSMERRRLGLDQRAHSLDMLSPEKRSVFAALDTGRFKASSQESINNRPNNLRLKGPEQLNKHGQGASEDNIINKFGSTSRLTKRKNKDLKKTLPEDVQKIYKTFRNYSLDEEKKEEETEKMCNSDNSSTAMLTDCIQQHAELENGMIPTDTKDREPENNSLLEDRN
Kind of assay: manual patch clamp (MPC) assay, TREK-2, species not stated. It is filed as cell-based.

In a further assay the test system is ICR male mice. Put plainly: acetic acid writhing assay. To be noted: mouse, 0.3, 1, 3 mg/kg PO, 2 h before acetic acid IP, writhes counted 30 min. Format: in vivo. Here is the method:
To initially explore the role of TREK-2 activation in analgesia, we evaluated 19b in the acetic acid writhing assay. Injection of acetic acid activates nociceptors directly and/or produces inflamed viscera (subdiaphragmatic organs) and subcutaneous (muscle wall) tissues. The number of writhes (characterized by contraction of the abdominal musculature and extension of the limbs) was then counted for 30 min. Analgesic effect was determined by comparing the number of writhes between in the presence of 19b or vehicle. […] At the 3 mg/kg PO dose of 19b, total brain levels are ∼3 μM and free brain in 0.92 μM and CSF levels in 0.22 μM, providing a good PK/PD relationship and supporting the data generated with the TREK activator 3.
Figure 4 Analgesic effect in acetic acid writhing assay. ICR male mice (6 weeks of age) were pretreated with vehicle (0.5 w/v% Methyl Cellulose in distilled water, PO) or 19b (= ONO-2920632) (0.3, 1, 3 mg/kg, PO) or Indomethacin (10 mg/kg, PO). […] The number of writhes (characterized by contraction of the abdominal musculature and extension of the limbs) was then counted for 30 min. Analgesic effect was determined by comparing the number of writhes between in the presence of compound and in the presence of vehicle (*; p < 0.05 by Student’s t test, #; p < 0.05 by Williams test).
Background: An intraperitoneal irritant provokes the stretching counted in writhing tests.

The target of the next assay is Adenosine A1 (Homo sapiens, UniProt P30542). Kind of assay: Eurofins Lead Profiling radioligand binding. To be noted: title: 30 μM.
The target of another assay is Adenosine A2A (Homo sapiens, UniProt P29274). Put plainly: Eurofins Lead Profiling radioligand binding. As to conditions: title: 30 μM.
In the next assay the target is Adrenergic β2 (Homo sapiens, UniProt P07550). Kind of assay: Eurofins Lead Profiling radioligand binding. To be noted: title: 30 μM.
The subject of assay [1] is Calcium Channel L-Type, Benzothiazepine. Kind of assay: Eurofins Lead Profiling radioligand binding. Also noted: species or system Rat. As to conditions: title: 30 μM.
The next assay has as its target Dopamine D3 (Homo sapiens, UniProt P35462). Put plainly: Eurofins Lead Profiling radioligand binding. To be noted: title: 30 μM.
Assay [2] addresses Epidermal Growth Factor (EGF) (Homo sapiens, UniProt P00533). Kind of assay: Eurofins Lead Profiling radioligand binding. To be noted: title: 30 μM.
For assay [3], the system named is GABAA, Flunitrazepam, Central. Put plainly: Eurofins Lead Profiling radioligand binding. Also noted: species or system Rat. As to conditions: title: 30 μM.
A further assay concerns Glutamate, Kainate. Kind of assay: Eurofins Lead Profiling radioligand binding. As to conditions: title: 30 μM. Also noted: species or system Rat.
The subject of a further assay is Glutamate, NMDA, Agonism. Kind of assay: Eurofins Lead Profiling radioligand binding. On the set-up: species or system Rat. To be noted: title: 30 μM.
Assay [4] relates to Glycine, Strychnine-Sensitive. Put plainly: Eurofins Lead Profiling radioligand binding. Also noted: species or system Rat. As to conditions: title: 30 μM.
The subject of another assay is Imidazoline I2, Central. Put plainly: Eurofins Lead Profiling radioligand binding. To be noted: title: 30 μM. On the set-up: species or system Rat.
Another assay addresses Melatonin MT1 (Homo sapiens, UniProt P48039). Put plainly: Eurofins Lead Profiling radioligand binding. To be noted: title: 30 μM.
Assay [5] deals with Nicotinic Acetylcholine α3β4 (Homo sapiens, UniProt P30926+P32297). Kind of assay: Eurofins Lead Profiling radioligand binding. To be noted: title: 30 μM.
In assay [6] the target is Platelet Activating Factor (PAF) (Homo sapiens, UniProt P25105). Put plainly: Eurofins Lead Profiling radioligand binding. To be noted: title: 30 μM.
For assay [7], the system named is Purinergic P2Y, Non-Selective. Kind of assay: Eurofins Lead Profiling radioligand binding. Also noted: species or system Rat. As to conditions: title: 30 μM.
The subject of a further assay is Rolipram. Kind of assay: Eurofins Lead Profiling radioligand binding. On the set-up: species or system Rat. To be noted: title: 30 μM.
A further assay has as its system Ryanodine. Kind of assay: Eurofins Lead Profiling radioligand binding. Also noted: species or system Rat. To be noted: title: 30 μM.
For the next assay, the target named is Transporter, GABA (Rattus norvegicus, UniProt P23978). Kind of assay: Eurofins Lead Profiling radioligand binding. As to conditions: title: 30 μM.

Platelet Activating Factor (PAF), sequence (P25105 whole entry): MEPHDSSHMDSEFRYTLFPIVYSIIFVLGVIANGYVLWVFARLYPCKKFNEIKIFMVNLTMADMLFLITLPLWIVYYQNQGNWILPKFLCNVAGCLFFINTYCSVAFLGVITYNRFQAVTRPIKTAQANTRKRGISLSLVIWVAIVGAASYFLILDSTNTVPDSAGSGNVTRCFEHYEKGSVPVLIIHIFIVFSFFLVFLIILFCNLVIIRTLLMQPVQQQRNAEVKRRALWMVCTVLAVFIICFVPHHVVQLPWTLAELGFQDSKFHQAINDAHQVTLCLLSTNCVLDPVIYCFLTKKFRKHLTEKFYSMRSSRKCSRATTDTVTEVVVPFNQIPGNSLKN
Adenosine A2A, sequence (P29274 whole entry): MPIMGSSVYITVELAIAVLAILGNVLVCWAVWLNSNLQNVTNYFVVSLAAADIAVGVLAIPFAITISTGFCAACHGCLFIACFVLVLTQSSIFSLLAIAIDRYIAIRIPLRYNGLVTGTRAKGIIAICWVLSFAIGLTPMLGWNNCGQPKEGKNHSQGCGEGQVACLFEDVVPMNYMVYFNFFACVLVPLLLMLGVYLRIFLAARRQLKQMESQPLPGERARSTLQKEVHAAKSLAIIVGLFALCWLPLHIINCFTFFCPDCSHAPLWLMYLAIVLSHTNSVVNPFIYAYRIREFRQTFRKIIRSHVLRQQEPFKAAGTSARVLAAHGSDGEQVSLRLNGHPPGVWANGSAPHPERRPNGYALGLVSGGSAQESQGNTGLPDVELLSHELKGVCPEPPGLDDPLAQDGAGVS
Adenosine A1, sequence (P30542 whole entry): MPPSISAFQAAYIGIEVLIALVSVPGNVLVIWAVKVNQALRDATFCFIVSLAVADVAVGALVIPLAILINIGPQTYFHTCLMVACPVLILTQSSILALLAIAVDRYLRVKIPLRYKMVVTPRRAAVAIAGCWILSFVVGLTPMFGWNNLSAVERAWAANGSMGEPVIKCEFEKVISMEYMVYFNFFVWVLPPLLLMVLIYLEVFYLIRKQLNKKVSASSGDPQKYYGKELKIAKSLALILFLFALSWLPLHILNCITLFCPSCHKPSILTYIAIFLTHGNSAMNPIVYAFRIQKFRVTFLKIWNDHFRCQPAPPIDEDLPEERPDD
Adrenergic β2, sequence (P07550 whole entry): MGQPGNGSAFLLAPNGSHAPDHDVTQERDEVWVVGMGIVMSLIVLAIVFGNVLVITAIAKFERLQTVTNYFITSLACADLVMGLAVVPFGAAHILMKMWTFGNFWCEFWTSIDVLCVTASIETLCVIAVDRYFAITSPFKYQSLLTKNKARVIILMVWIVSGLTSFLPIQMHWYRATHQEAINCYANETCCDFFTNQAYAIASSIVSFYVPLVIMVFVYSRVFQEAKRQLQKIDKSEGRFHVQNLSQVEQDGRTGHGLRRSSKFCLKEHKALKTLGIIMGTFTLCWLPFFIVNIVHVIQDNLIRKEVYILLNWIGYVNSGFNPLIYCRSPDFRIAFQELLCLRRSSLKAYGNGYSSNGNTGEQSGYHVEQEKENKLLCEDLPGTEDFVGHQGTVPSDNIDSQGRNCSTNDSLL
Melatonin MT1, sequence (P48039 whole entry): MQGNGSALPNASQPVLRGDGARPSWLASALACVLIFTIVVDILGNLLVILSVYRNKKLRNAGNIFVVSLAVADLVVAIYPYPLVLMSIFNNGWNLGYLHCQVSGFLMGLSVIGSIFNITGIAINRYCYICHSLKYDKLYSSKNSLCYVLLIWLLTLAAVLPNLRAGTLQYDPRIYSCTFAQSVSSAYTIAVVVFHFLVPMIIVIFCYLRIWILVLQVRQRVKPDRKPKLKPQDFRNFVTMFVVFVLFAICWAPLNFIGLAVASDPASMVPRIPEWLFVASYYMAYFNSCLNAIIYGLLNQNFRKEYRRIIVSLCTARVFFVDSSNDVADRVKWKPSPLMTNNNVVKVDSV
Nicotinic Acetylcholine α3β4, sequence (P32297 32-505): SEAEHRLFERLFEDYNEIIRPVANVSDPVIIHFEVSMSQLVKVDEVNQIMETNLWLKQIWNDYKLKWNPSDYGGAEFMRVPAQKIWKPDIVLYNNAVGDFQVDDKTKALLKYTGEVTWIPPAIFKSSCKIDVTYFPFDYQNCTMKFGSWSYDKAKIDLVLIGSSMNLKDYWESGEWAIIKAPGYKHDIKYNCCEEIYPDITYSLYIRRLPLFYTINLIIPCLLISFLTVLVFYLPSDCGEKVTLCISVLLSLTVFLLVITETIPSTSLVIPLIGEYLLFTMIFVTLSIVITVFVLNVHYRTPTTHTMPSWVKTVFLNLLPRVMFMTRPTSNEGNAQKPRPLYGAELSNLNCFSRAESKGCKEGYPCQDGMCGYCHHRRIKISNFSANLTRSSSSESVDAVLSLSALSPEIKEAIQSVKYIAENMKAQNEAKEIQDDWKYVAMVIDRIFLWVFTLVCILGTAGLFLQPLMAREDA
Nicotinic Acetylcholine α3β4, sequence (P30926 22-498): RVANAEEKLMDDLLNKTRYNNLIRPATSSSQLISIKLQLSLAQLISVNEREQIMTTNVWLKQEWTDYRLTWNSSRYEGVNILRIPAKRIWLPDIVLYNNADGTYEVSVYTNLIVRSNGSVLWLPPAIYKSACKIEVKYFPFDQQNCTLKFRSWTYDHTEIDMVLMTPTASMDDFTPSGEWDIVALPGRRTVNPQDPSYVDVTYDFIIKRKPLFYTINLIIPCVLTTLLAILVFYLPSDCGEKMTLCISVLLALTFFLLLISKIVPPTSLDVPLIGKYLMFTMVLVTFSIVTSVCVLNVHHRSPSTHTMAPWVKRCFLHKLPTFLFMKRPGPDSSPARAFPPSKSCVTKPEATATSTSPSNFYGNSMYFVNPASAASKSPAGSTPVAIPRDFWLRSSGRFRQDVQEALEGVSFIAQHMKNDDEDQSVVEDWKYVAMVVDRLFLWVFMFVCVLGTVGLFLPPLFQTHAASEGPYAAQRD
Epidermal Growth Factor (EGF), sequence (P00533 25-1210): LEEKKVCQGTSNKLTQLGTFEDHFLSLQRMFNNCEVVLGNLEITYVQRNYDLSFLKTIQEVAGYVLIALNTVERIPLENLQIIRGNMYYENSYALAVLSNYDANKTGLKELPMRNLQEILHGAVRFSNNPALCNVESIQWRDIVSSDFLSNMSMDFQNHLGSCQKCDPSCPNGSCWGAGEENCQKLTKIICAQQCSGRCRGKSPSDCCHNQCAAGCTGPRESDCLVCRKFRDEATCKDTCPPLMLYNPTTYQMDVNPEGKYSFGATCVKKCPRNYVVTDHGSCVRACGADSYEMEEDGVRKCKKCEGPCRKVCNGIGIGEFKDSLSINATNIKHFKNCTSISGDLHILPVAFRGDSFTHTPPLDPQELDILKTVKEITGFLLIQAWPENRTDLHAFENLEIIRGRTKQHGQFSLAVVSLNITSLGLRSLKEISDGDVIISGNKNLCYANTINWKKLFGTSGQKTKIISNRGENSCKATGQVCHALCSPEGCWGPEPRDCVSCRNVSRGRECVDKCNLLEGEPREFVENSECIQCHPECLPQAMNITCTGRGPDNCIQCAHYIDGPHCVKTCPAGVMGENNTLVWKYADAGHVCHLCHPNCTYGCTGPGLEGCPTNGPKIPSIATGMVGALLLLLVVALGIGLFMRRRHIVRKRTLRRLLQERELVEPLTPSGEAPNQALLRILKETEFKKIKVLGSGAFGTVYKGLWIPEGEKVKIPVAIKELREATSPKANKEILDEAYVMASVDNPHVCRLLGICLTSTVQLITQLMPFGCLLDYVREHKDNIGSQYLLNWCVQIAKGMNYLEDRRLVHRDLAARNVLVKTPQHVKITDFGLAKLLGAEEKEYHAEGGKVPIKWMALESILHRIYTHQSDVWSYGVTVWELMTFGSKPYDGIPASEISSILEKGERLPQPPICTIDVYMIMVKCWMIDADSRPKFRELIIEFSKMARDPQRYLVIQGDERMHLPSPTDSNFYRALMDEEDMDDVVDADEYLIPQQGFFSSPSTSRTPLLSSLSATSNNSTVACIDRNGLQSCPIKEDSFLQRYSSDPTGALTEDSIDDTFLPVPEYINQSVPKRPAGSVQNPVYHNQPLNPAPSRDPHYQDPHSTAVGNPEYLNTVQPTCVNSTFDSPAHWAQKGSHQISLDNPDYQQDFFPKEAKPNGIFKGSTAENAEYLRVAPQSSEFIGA
Dopamine D3, sequence (P35462 whole entry): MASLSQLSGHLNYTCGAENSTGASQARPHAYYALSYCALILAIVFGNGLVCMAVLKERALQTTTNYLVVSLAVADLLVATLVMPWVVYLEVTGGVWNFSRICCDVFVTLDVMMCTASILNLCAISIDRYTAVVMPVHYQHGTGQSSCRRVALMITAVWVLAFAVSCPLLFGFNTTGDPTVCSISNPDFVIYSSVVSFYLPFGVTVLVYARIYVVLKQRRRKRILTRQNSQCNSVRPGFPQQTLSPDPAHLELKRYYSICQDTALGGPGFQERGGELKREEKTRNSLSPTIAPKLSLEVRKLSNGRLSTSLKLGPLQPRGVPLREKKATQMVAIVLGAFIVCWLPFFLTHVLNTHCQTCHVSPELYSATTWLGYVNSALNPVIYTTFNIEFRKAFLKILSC

By EC50 is commonly meant the concentration giving half of the maximal effect. Higher therefore signals weaker potency. By Emax is commonly meant the greatest response seen or fitted, relative to the assay's reference. At TREK-1, `CS(=O)(=O)Nc1ccc(C(=O)NCc2ccc(Cl)cc2Cl)cc1` [Compound 13] gave an EC50 of 7.4 µM and a maximum response (Emax) of 99%. For the same compound, at TREK-2 (TREK-2 over TREK-1, manual patch clamp), the “selectivity for TREK-2 in MPC assay” value is about 8 fold. Also, at TREK-2 (manual patch clamp), a half-maximal response (EC50) required 0.95 µM and the Emax is 126%.
Usually inhibition stands for the drop in the measured response relative to a control, in per cent. A word on the % Inhibition: it is the change of the read-out against control, counted positive when it falls. In the case of `O=C(NCc1ccc(OC(F)(F)F)cc1F)c1ccc2ncnn2c1` [Compound 19b], the “analgesic effect (number of writhes)” value is given as “dose-dependently reduces the number of writhes; also recorded: analgesic efficacy at 3 mg/kg PO of comparable magnitude to the positive control indomethacin” with ICR male mice and “robust, dose dependent efficacy” in the assay on ICR male mice (listed as ONO-2920632). Also, the inhibition stood at 14% on Adenosine A1; 10% at Adenosine A2A; 2% at Adrenergic β2; 13% on Dopamine D3; 2% in assay [2]; 17% on Melatonin MT1. In addition, the inhibition in [5] is -17%; in assay [6], 12%; on Transporter, GABA it was -6%. The “% Inhibition at 10 µM” value in assay [1] is given as 2%; in assay [3], 0%; with Glutamate, Kainate, 13%; in the assay on Glutamate, NMDA, Agonism it was -3%; in assay [4], -16%; in the assay with Imidazoline I2, Central, 2%. Besides, the results for the “% Inhibition at 10 µM” value (in assay [7]; with Rolipram; in the assay with Ryanodine) were -7%, 13% and 6%, respectively.
